According to patent US20120141461A1, “COMPOSITIONS AND METHODS FOR DIAGNOSING AND TREATING FIBROTIC DISORDERS” (THE REGENTS OF THE UNIVERSITY OF MICHIGAN, priority 2009, published 2012):

B1: catalase: an enzyme which reduces H2O2 to H2O (protein, UniProt P04040 2-527, looked up)
Catalase: ADSRDPASDQMQHWKEQRAAQKADVLTTGAGNPVGDKLNVITVGPRGPLLVQDVVFTDEMAHFDRERIPERVVHAKGAGAFGYFEVTHDITKYSKAKVFEHIGKKTPIAVRFSTVAGESGSADTVRDPRGFAVKFYTEDGNWDLVGNNTPIFFIRDPILFPSFIHSQKRNPQTHLKDPDMVWDFWSLRPESLHQVSFLFSDRGIPDGHRHMNGYGSHTFKLVNANGEAVYCKFHYKTDQGIKNLSVEDAARLSQEDPDYGIRDLFNAIATGKYPSWTFYIQVMTFNQAETFPFNPFDLTKVWPHKDYPLIPVGKLVLNRNPVNYFAEVEQIAFDPSNMPPGIEASPDKMLQGRLFAYPDTHRHRLGPNYLHIPVNCPYRARVANYQRDGPMCMQDNQGGAPNYYPNSFGAPEQQPSALEHSIQYSGEVRRFNTANDDNVTQVRAFYVNVLNEEQRKRLCENIAGHLKDAQIFIQKKAVKNFTEVHPDYGSHIQALLDKYNAEKPKNAIHTFVQSGSHLAAREKANL

Tests used:
C57BL/6 mice = assay: Murine model of bleomycin-induced lung injury/fibrosis; type: in vivo, mouse
Description: RNA was extracted and expression of NOX4 mRNA analyzed by real-time PCR; (b) C57BL/6 mice were administered intra-tracheal (IT) bleomycin on day 0.
C57BL/6J mice (6-8 weeks of age; Jackson Laboratories, Bar Harbor, Me.) were anesthetized with intraperitoneal injection of ketamine and xylazine. Intra-tracheal bleomycin (0.025 U) or FITC (4.67 mg/ml suspension in PBS) was administered to induce lung injury. The University of Michigan Committee on the Use and Care of Animals approved the animal protocols.
(§1) For in vitro RNAi, cells were transfected with single duplexes targeting NOX4 or non-targeting control siRNA (100 nM) using Lipofectamine-2000 reagent. For in vivo RNAi studies, NOX4 siRNA or control nontargeting siRNA (Dharmacon Inc.) were administered at a dose of ˜50 μg per mouse by intratracheal injection with bleomycin, FITC, or saline, in a total volume of 50 μl using a 26-gauge needle.
(§2) Cell lysates were prepared in RIPA buffer, subjected them to SDS-PAGE under reducing conditions and performed western immunoblotting as previously described (Horowitz et al. J Biol Chem 279, 1359-1367 (2004), herein incorporated by reference in its entirety).
Acid-soluble collagen was measured in cell culture supernatants or whole lung homogenates using the Sircol assay as previously described (Vittal et al. Am J Pathol 166, 367-375 (2005), herein incorporated by reference in its entirety).
Murine whole lungs were homogenized in PBS, then acidified (by adding an equal volume of 12 N HCl), hydrolyzed (by heating at 120° C. for 24 h), and processed samples for hydroxyline measurements as previously described 29. Lung histology and immunohistochemical staining Paraffin embedded tissue sections were processed for lung histology and immunohistochemical staining as previously described described (Vittal et al. Am J Pathol 166, 367-375 (2005), herein incorporated by reference in its entirety).

[1] = system: human fetal lung mesenchymal cells (hFLMCs); assay: Myofibroblast differentiation markers in hFLMCs in 3D-collagen matrix, Western immunoblotting; type: cell-based; settings: catalase 750 U/ml, TGF-β1 2 ng/ml x 16 h
Description: (§3) Collagen gels were reconstituted by mixing 1 part of 3 mg/ml neutralized rat tail collagen type 1 and two parts of cell suspension in serum-free media. Cell suspensions were seeded at a density of 200,000 cells per ml into 24-well tissue culture plates and allowed the gels to polymerize at 37° C. for 1 h before adding 1 ml of media. Gels were incubated overnight prior to treatments, and gently detached the edge of the gels from the walls of the well using a sterile spatula. Gels were photographed and gel area was measured using ImageJ (NIH) software.
as §1, §2

[2] = system: human fetal lung mesenchymal cells (hFLMCs); assay: TGF-β1-induced collagen gel contractility of hFLMCs in 3D-collagen matrices; type: cell-based; settings: catalase at 750 U/ml
Description: as §3

[3] = DPI 1.6 mg/kg daily intra-peritoneal on days 8 to 21, day 21

Row | Molecule | protection from fibrosis, acid-soluble collagen in whole lung (C57BL/6 mice; DPI 1.6 mg/kg daily intra-peritoneal on days 8 to 21, Sircol assay on day 21) | expression of NOX4 and α-SMA expressing myofibroblasts (IHC) (C57BL/6 mice; [3]) | fibrosis by histopathology and Masson's trichrome staining for collagen (C57BL/6 mice; [3]) | fibronectin synthesis induced by TGF-β1 [1] | upregulation of α-smooth muscle actin (α-SMA) induced by TGF-β1 [1] | TGF-β1-induced collagen gel contractility [2]
1 | c1ccc2c(c1)[I+]c1ccccc1-2 [DPI, diphenyleneiodonium chloride] | significant protection from fibrosis | reduced expression | reduced fibrosis | – | – | –
2 | B1 | – | – | – | inhibited | inhibited | inhibited
